# Source: paper PMC4826192 (Oncotarget, 2015)
# Test system: MPNST (malignant peripheral nerve sheath tumor) cells
# Experiment: Cell viability assay (Dojindo CCK-8)
# Settings: 72 hours
smiles,measurement,value
Cc1ccc(Nc2nccc(N(C)c3ccc4c(C)n(C)nc4c3)n2)cc1S(N)(=O)=O [pazopanib],"inhibition of MPNST cell proliferation, pazopanib versus MGCD516",similar
